Laboratory results published in patent publication US11028079B2 (ConverGene LLC, priority 2015, dated 2021).
pKd: −log10 of the molar value.

Biological target: T1, BRD4 bromodomains (Homo sapiens, UniProt O60885)
T1 construct: fused on or other part: T7 phage capsid protein (phage-display fusion; the phage DNA is read out by qPCR)
Assay: BROMOscan bromodomain competition binding assay (DiscoveRx)
Conditions: Kd from 11 compound concentrations ranging from 0 to 10 μM, read-out: BROMOscan Relative Activity
Procedure: Bromodomain assays were conducted to measure interactions between certain compounds and bromodomains.
The assays were conducted according to BROMOscan protocol from Discover Rx. Briefly, BRD4 bromodomains expressed as a fusion capsid protein of T7 phage were bound to acetylated peptide ligand on a solid phase and competition bindings were performed. T7 phage strains displaying bromodomains were grown in parallel in 24-well blocks in an E. coli host derived from the BL21 strain. E. coli were grown to log-phase and infected with T7 phage from a frozen stock (multiplicity of infection=0.4) and incubated with shaking at 32° C. until lysis (90-150 minutes). The lysates were centrifuged (5,000×g) and filtered (0.2 μm) to remove cell debris. […] The liganded beads were blocked with excess biotin and washed with blocking buffer (SeaBlock (Pierce), 1% BSA, 0.05% Tween 20, 1 mM DTT) to remove unbound ligand and to reduce non-specific phage binding. […] Test compounds were prepared as 1000× stocks in 100% DMSO and subsequently diluted 1:10 in monoethylene glycol (MEG) to create stocks at 100× the screening concentration (resulting stock solution is 10% DMSO/90% MEG). The compounds were then diluted directly into the assays such that the final concentration of DMSO and MEG were 0.1% and 0.9%, respectively. All reactions were performed in polystyrene 96-well plates in a final volume of 0.135 ml. […] The bromodomain concentration in the eluates was measured by qPCR. Data was collected at 11 compound concentrations ranging from 0 to 10 μM. Kd values were then derived from a standard dose-response curve generated with Hill equation (Hill Slope was set to ˜1) and a non-linear least square fit with the Levenberg-Marquardt algorithm. Response=Background+Signal−Background/1+(Kd Hill Slope/Dose Hill Slope)

Row | pKd | SMILES
1 | 5.30 to 6.30 | Cc1noc(C)c1-c1ccc2nc(N3CCN(CCN(C)C)CC3)nc(NCCc3ccc(Cl)cc3)c2c1 [Example 160, N-(4-chlorophenethyl)-2-(4-(2-(dimethylamino)ethyl)piperazin-1-yl)-6-(3,5-dimethylisoxazol-4-yl)quinazolin-4-amine]
2 | > 6.30 | CN(C)C(=O)CN1CCN(c2nc(NCc3cccc(Cl)c3)c3cc(-c4ccc(=O)n(C)c4)ccc3n2)CC1 [Example 110, 2-(4-(4-((3-chlorobenzyl)amino)-6-(1-methyl-6-oxo-1,6-dihydropyridin-3-yl)quinazolin-2-yl)piperazin-1-yl)-N,N-dimethylacetamide]
3 | > 6.30 | Cc1noc(C)c1-c1ccc2nc(N3CCC(CCN(C)C)CC3)nc(NCc3cccc(Cl)c3)c2c1 [Example 34, N-(3-chlorobenzyl)-2-(4-(2-(dimethylamino)ethyl)piperidin-1-yl)-6-(3,5-dimethylisoxazol-4-yl)quinazolin-4-amine]
4 | > 6.30 | Cc1noc(C)c1-c1ccc2nc(C(=O)NCc3ncc[nH]3)nc(NCc3cccc(Cl)c3)c2c1 [Example 177, N-((1H-imidazol-2-yl)methyl)-4-((3-chlorobenzyl)amino)-6-(3,5-dimethylisoxazol-4-yl)quinazoline-2-carboxamide]
5 | > 6.30 | CN(C)CCCN1CCN(c2nc(NCc3cccc(Cl)c3)c3cc(-c4ccc(=O)n(C)c4)ccc3n2)CC1 [Example 123, 5-(4-((3-chlorobenzyl)amino)-2-(4-(3-(dimethylamino)propyl)piperazin-1-yl)quinazolin-6-yl)-1-methylpyridin-2(1H)-one]
6 | > 6.30 | Cc1noc(C)c1-c1ccc2nc(N3CCN(CCN(C)C)CC3)nc(NCc3ccccc3)c2c1 [Example 92, N-benzyl-2-(4-(2-(dimethylamino)ethyl)piperazin-1-yl)-6-(3,5-dimethylisoxazol-4-yl)quinazolin-4-amine]
7 | > 6.30 | Cc1noc(C)c1-c1ccc2nc(-c3cnn(C(C)(C)CO)c3)nc(N3CCOC[C@@H]3c3ccccc3)c2c1 [Example 304, (S)-2-(4-(6-(3,5-dimethylisoxazol-4-yl)-4-(3-phenylmorpholino)quinazolin-2-yl)-1H-pyrazol-1-yl)-2-methylpropan-1-ol]
8 | > 6.30 | CNC(=O)Cn1cc(-c2nc(NC3(c4cccc(Cl)c4)CC3)c3cc(-c4c(C)noc4C)ccc3n2)cn1 [Example 181, 2-(4-(4-((1-(3-chlorophenyl)cyclopropyl)amino)-6-(3,5-dimethylisoxazol-4-yl)quinazolin-2-yl)-1H-pyrazol-1-yl)-N-methylacetamide]
9 | 5.30 to 6.30 | Cc1ccc(NC(=O)c2nc(NCc3cccc(Cl)c3)c3cc(-c4c(C)noc4C)ccc3n2)cn1 [Example 219, 4-((3-chlorobenzyl)amino)-6-(3,5-dimethylisoxazol-4-yl)-N-(6-methylpyridin-3-yl)quinazoline-2-carboxamide]
10 | > 6.30 | Cc1nc(NCc2cccc(Cl)c2)c2cc(-c3c(C)noc3C)ccc2n1 [Example 9, N-(3-chlorobenzyl)-6-(3,5-dimethylisoxazol-4-yl)-2-methylquinazolin-4-amine]
11 | > 6.30 | CNC(=O)CN1CCN(c2nc(NCc3cncc(Cl)c3)c3cc(-c4c(C)noc4C)ccc3n2)CC1 [Example 118, 2-(4-(4-(((5-chloropyridin-3-yl)methyl)amino)-6-(3,5-dimethylisoxazol-4-yl)quinazolin-2-yl)piperazin-1-yl)-N-methylacetamide]
12 | > 6.30 | Cc1noc(C)c1-c1ccc2nc(-c3cnn(CC(N)=O)c3)nc(NCc3cncc(Cl)c3)c2c1 [Example 142, 2-(4-(4-(((5-chloropyridin-3-yl)methyl)amino)-6-(3,5-dimethylisoxazol-4-yl)quinazolin-2-yl)-1H-pyrazol-1-yl)acetamide]
13 | > 6.30 | CC(=O)N1CCN(c2nc(N3CCOC[C@@H]3c3ccccc3)c3cc(-c4c(C)noc4C)ccc3n2)CC1 [Example 294, (S)-1-(4-(6-(3,5-dimethylisoxazol-4-yl)-4-(3-phenylmorpholino)quinazolin-2-yl)piperazin-1-yl)ethan-1-one]
14 | > 6.30 | Cn1cc(-c2ccc3nc(N4CCN(CCO)CC4)nc(NCc4cccc(Cl)c4)c3c2)ccc1=O [Example 121, 5-(4-((3-chlorobenzyl)amino)-2-(4-(2-hydroxyethyl)piperazin-1-yl)quinazolin-6-yl)-1-methylpyridin-2(1H)-one]
15 | > 6.30 | Cn1cc(-c2ccc3nc(-c4cnn(C(C)(C)CO)c4)nc(NCc4cncc(Cl)c4)c3c2)ccc1=O [Example 149, 5-(4-(((5-chloropyridin-3-yl)methyl)amino)-2-(1-(1-hydroxy-2-methylpropan-2-yl)-1H-pyrazol-4-yl)quinazolin-6-yl)-1-methylpyridin-2(1H)-one]
16 | > 6.30 | CNC(=O)CN1CCN(c2nc(NCc3cccc(Cl)c3)c3cc(-c4ccc(=O)n(C)c4)ccc3n2)CC1 [Example 109, 2-(4-(4-((3-chlorobenzyl)amino)-6-(1-methyl-6-oxo-1,6-dihydropyridin-3-yl)quinazolin-2-yl)piperazin-1-yl)-N-methylacetamide]
17 | > 6.30 | Cc1noc(C)c1-c1ccc2nc(-c3ccc(CO)nc3)nc(NCc3cccc(Cl)c3)c2c1 [Example 63, (5-(4-((3-chlorobenzyl)amino)-6-(3,5-dimethylisoxazol-4-yl)quinazolin-2-yl)pyridin-2-yl)methanol]
18 | > 6.30 | Cc1noc(C)c1-c1ccc2nc(C(=O)NCc3cncc(Cl)c3)nc(NCc3cccc(Cl)c3)c2c1 [Example 191, 4-((3-chlorobenzyl)amino)-N-((5-chloropyridin-3-yl)methyl)-6-(3,5-dimethylisoxazol-4-yl)quinazoline-2-carboxamide]
19 | > 6.30 | Cc1noc(C)c1-c1ccc2nc(C(=O)NCc3cc(Cl)ccn3)nc(NCc3cccc(Cl)c3)c2c1 [Example 188, 4-((3-chlorobenzyl)amino)-N-((4-chloropyridin-2-yl)methyl)-6-(3,5-dimethylisoxazol-4-yl)quinazoline-2-carboxamide]
20 | > 6.30 | CC(=O)N1CCC(n2cc(-c3nc(N4CCOC[C@@H]4c4ccccc4)c4cc(-c5c(C)noc5C)ccc4n3)cn2)CC1 [Example 327, (S)-1-(4-(4-(6-(3,5-dimethylisoxazol-4-yl)-4-(3-phenylmorpholino)quinazolin-2-yl)-1H-pyrazol-1-yl)piperidin-1-yl)ethan-1-one]
21 | 5.30 to 6.30 | Cc1noc(C)c1-c1ccc2nc(C(=O)N3CCc4[nH]ncc4C3)nc(N3CCOC[C@@H]3c3ccccc3)c2c1 [Example 285, (S)-(6-(3,5-dimethylisoxazol-4-yl)-4-(3-phenylmorpholino)quinazolin-2-yl)(1,4,6,7-tetrahydro-5H-pyrazolo[4,3-c]pyridin-5-yl)methanone]
22 | > 6.30 | Cc1noc(C)c1-c1ccc2nc(N3CCN(CC(N)=O)CC3)nc(NCc3cncc(Cl)c3)c2c1 [Example 117, 2-(4-(4-(((5-chloropyridin-3-yl)methyl)amino)-6-(3,5-dimethylisoxazol-4-yl)quinazolin-2-yl)piperazin-1-yl)acetamide]
23 | > 6.30 | Cc1noc(C)c1-c1ccc2nc(N3CCc4ncn(C)c4C3)nc(N3CCOC[C@@H]3c3ccccc3)c2c1 [Example 311, (S)-4-(6-(3,5-dimethylisoxazol-4-yl)-2-(3-methyl-3,4,6,7-tetrahydro-5H-imidazo[4,5-c]pyridin-5-yl)quinazolin-4-yl)-3-phenylmorpholine]
24 | 5.30 to 6.30 | CNc1nc(NCc2cccc(Cl)c2)c2cc(-c3c(C)noc3C)ccc2n1 [Example 5, N4-(3-chlorobenzyl)-6-(3,5-dimethylisoxazol-4-yl)-N2-methylquinazoline-2,4-diamine]
25 | > 6.30 | Cc1noc(C)c1-c1ccc2nc(N3CCN(CCN(C)C)CC3)nc(NCc3cccc(Cl)c3)c2c1 [Example 12, N-(3-chlorobenzyl)-2-(4-(2-(dimethylamino)ethyl)piperazin-1-yl)-6-(3,5-dimethylisoxazol-4-yl)quinazolin-4-amine]
26 | > 6.30 | Cc1noc(C)c1-c1ccc2nc(-c3cnn(C4CNC4)c3)nc(N3CCOC[C@@H]3c3ccccc3)c2c1 [Example 326, (S)-4-(2-(1-(azetidin-3-yl)-1H-pyrazol-4-yl)-6-(3,5-dimethylisoxazol-4-yl)quinazolin-4-yl)-3-phenylmorpholine]
27 | 5.30 to 6.30 | Cc1noc(C)c1-c1ccc2c(NCc3cccc(Cl)c3)nc(N3CCN(CCN(C)C)CC3)nc2c1 [Example 39, N-(3-chlorobenzyl)-2-(4-(2-(dimethylamino)ethyl)piperazin-1-yl)-7-(3,5-dimethylisoxazol-4-yl)quinazolin-4-amine]
28 | 5.30 to 6.30 | Cc1noc(C)c1-c1ccc2nc(C(=O)Nc3cncc(F)c3)nc(NCc3cccc(Cl)c3)c2c1 [Example 221, 4-((3-chlorobenzyl)amino)-6-(3,5-dimethylisoxazol-4-yl)-N-(5-fluoropyridin-3-yl)quinazoline-2-carboxamide]
